In ChEMBL document CHEMBL1147847, “Evaluation of electronic, lipophilic and membrane affinity effects on antiproliferative activity of 5-substituted-2-(2,4-dihydroxyphenyl)-1,3,4-thiadiazoles against various human cancer cells” (2007):

Assays:
Type in all cases: functional
[1] = Antiproliferative activity against human HCV29T cells by SRB method
[2] = Antiproliferative activity against human SW707 cells by SRB method
T47D = test: Antiproliferative activity against human T47D cells by SRB method
A549 = test: Antiproliferative activity against human A549 cells by SRB method

OCCCc1nnc(-c2ccc(O)cc2O)s1
log(1/ID50) [1]: -2.232

Oc1ccc(-c2nnc(-c3ccccc3)s2)c(O)c1
log(1/ID50) [1]: -2.276

Oc1ccc(-c2nnc(-c3ccc(O)cc3O)s2)c(O)c1
log(1/ID50) [1]: -2.045

Oc1ccc(-c2nnc(-c3ccc(-c4ccccc4)cc3)s2)c(O)c1
log(1/ID50) [2]: -1.161
log(1/ID50) (T47D): -1.407
log(1/ID50) (A549): -1.28
log(1/ID50) [1]: -1.693

Oc1ccc(-c2nnc(Cc3ccccc3)s2)c(O)c1
log(1/ID50) [1]: -2.09

Oc1ccc(-c2nnc(Cc3cccc4ccccc34)s2)c(O)c1
log(1/ID50) [2]: -1.926
log(1/ID50) (T47D): -1.629
log(1/ID50) (A549): -1.865
log(1/ID50) [1]: -1.923

Oc1ccc(-c2nnc(-c3ccncc3)s2)c(O)c1
log(1/ID50) [1]: <-2.567

Oc1ccc(-c2nnc(-c3cc4ccccc4s3)s2)c(O)c1
log(1/ID50) [1]: -1.848

Oc1ccc(-c2nnc(COc3ccccc3Cl)s2)c(O)c1
log(1/ID50) [2]: -2.037
log(1/ID50) (T47D): -1.494
log(1/ID50) (A549): -2.108
log(1/ID50) [1]: -2.061

Oc1ccc(-c2nncs2)c(O)c1
log(1/ID50) [1]: -2.25

CCOc1ccc(-c2nnc(-c3ccc(O)cc3O)s2)cc1
log(1/ID50) [1]: -2.016

Cc1cccc(-c2nnc(-c3ccc(O)cc3O)s2)c1O
log(1/ID50) [2]: -1.746
log(1/ID50) (T47D): -1.273
log(1/ID50) (A549): -1.292
log(1/ID50) [1]: -1.745

CCCCCCCCCCCCCCCc1nnc(-c2ccc(O)cc2O)s1
log(1/ID50) [1]: <-2.393

Oc1ccc(-c2nnc(COc3ccc(F)cc3)s2)c(O)c1
log(1/ID50) [1]: -1.999

Oc1ccc(-c2nnc(COc3ccc(Cl)cc3Cl)s2)c(O)c1
log(1/ID50) [1]: -2.41

O=[N+]([O-])c1ccc(OCc2nnc(-c3ccc(O)cc3O)s2)cc1
log(1/ID50) [1]: -2.429

Oc1ccc(-c2nnc(C(O)c3ccccc3)s2)c(O)c1 (stereo not drawn)
log(1/ID50) [2]: -2.027
log(1/ID50) (T47D): -2.148
log(1/ID50) (A549): -2.139
log(1/ID50) [1]: -1.857

Oc1ccc(-c2nnc(CCCCc3nnc(-c4ccc(O)cc4O)s3)s2)c(O)c1
log(1/ID50) [2]: -1.025
log(1/ID50) (T47D): <-2.354
log(1/ID50) (A549): -1.42
log(1/ID50) [1]: -1.421

Oc1cc(O)cc(-c2nnc(-c3ccc(O)cc3O)s2)c1
log(1/ID50) [1]: -2.182

Oc1ccc(-c2nnc(-c3ccccn3)s2)c(O)c1
log(1/ID50) [1]: -2.152

CC(C)(C)c1ccc(-c2nnc(-c3ccc(O)cc3O)s2)cc1
log(1/ID50) [2]: -1.139
log(1/ID50) (T47D): -1.088
log(1/ID50) (A549): -1.593
log(1/ID50) [1]: -1.057

Oc1ccc(-c2nnc(-c3cccc4ccccc34)s2)c(O)c1
log(1/ID50) [2]: -1.766
log(1/ID50) (T47D): -1.18
log(1/ID50) (A549): -1.828
log(1/ID50) [1]: -1.871

Oc1ccc(-c2nnc(COc3cccc(F)c3)s2)c(O)c1
log(1/ID50) [1]: -2.093

Oc1ccc(-c2nnc(-c3ccccc3Br)s2)c(O)c1
log(1/ID50) [2]: -1.89
log(1/ID50) (T47D): -1.444
log(1/ID50) (A549): -1.912
log(1/ID50) [1]: -1.919

Cc1cc(Cl)ccc1OCc1nnc(-c2ccc(O)cc2O)s1
log(1/ID50) [2]: -2.117
log(1/ID50) (T47D): -1.402
log(1/ID50) (A549): -1.964
log(1/ID50) [1]: -1.816

CCOc1cccc(-c2nnc(-c3ccc(O)cc3O)s2)c1
log(1/ID50) [1]: -2.04

Oc1ccc(-c2nnc(-c3ccccc3O)s2)c(O)c1
log(1/ID50) [1]: -2.083

COc1cccc(COc2nnc(-c3ccc(O)cc3O)s2)c1
log(1/ID50) [2]: -1.18
log(1/ID50) (T47D): -0.958
log(1/ID50) (A549): -1.379
log(1/ID50) [1]: -0.522

Oc1ccc(-c2nnc(-c3ccco3)s2)c(O)c1
log(1/ID50) [2]: <-2.585
log(1/ID50) (T47D): -2.196
log(1/ID50) (A549): <-2.585
log(1/ID50) [1]: -2.178

COc1cc(-c2nnc(-c3ccc(O)cc3O)s2)cc(OC)c1O
log(1/ID50) [1]: -2.027

CCOc1nnc(-c2ccc(O)cc2O)s1
log(1/ID50) [1]: -2.305

COc1nnc(-c2ccc(O)cc2O)s1
log(1/ID50) [1]: -2.343
